Results reported in the supplement of paper PMC10733146.

What was measured:
Assay in all cases: viability relative to DMSO control (fraction); higher = less drug effect (more viable cells)
Conditions in all cases: 48 h
Pralatrexate = compound: C#CCC(Cc1cnc2nc(N)nc(N)c2n1)c1ccc(C(=O)N[C@@H](CCC(=O)O)C(=O)O)cc1 [Pralatrexate]
Method in brief: (§1)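 Using 384-well plates with compounds already plated at five concentrations, one well per concentration, 4 × 10^4 primary mononuclear tumour cells were added per well. Cells were Ficoll-isolated from blood or bone marrow or came from processed lymph node, fresh or cryopreserved. They were kept for 48 h at 37 °C and 5% CO2 in RPMI-1640 supplemented with penicillin/streptomycin, L-glutamine and human serum, and viability was read as CellTiter-Glo luminescence relative to the median of 16 inner DMSO wells.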

Pacritinib = compound: C1=N/C2=N/c3ccc(OCCN4CCCC4)c(c3)COC/C=C/COCc3cccc(c3)C(=C1)N2 [Pacritinib]
Method in brief: as §1

Idarubicin = compound: CC(=O)[C@]1(O)Cc2c(O)c3c(c(O)c2[C@@H](O[C@H]2C[C@H](N)[C@H](O)[C@H](C)O2)C1)C(=O)c1ccccc1C3=O [Idarubicin]
Method in brief: as §1

Carfilzomib = compound: CC(C)C[C@H](NC(=O)[C@H](CCc1ccccc1)NC(=O)CN1CCOCC1)C(=O)N[C@@H](Cc1ccccc1)C(=O)N[C@@H](CC(C)C)C(=O)[C@@]1(C)CO1 [Carfilzomib]
Method in brief: as §1

ERK5-IN-1 = compound: CCOc1cc(C(=O)N2CCC(N3CCN(C)CC3)CC2)ccc1Nc1ncc2c(n1)N(C1CCCC1)c1ccccc1C(=O)N2C [ERK5-IN-1]
Method in brief: as §1

BI6727 = compound: CC[C@@H]1C(=O)N(C)c2cnc(Nc3ccc(C(=O)N[C@H]4CC[C@H](N5CCN(CC6CC6)CC5)CC4)cc3OC)nc2N1C(C)C [BI6727]
Method in brief: as §1

Birinapant = compound: CC[C@H](NC(=O)[C@H](C)NC)C(=O)N1C[C@@H](O)C[C@H]1Cc1c(-c2[nH]c3cc(F)ccc3c2C[C@@H]2C[C@H](O)CN2C(=O)[C@H](CC)NC(=O)[C@H](C)NC)[nH]c2cc(F)ccc12 [Birinapant]
Method in brief: as §1

Ribociclib = compound: CN(C)C(=O)c1cc2cnc(Nc3ccc(N4CCNCC4)cn3)nc2n1C1CCCC1 [Ribociclib]
Method in brief: as §1

Rigosertib = compound: COc1cc(OC)c(/C=C/S(=O)(=O)Cc2ccc(OC)c(NCC(=O)O)c2)c(OC)c1 [Rigosertib]
Method in brief: as §1

BEZ235 = compound: Cn1c(=O)n(-c2ccc(C(C)(C)C#N)cc2)c2c3cc(-c4cnc5ccccc5c4)ccc3ncc21 [BEZ235]
Method in brief: as §1

Iniparib = compound: NC(=O)c1ccc(I)c([N+](=O)[O-])c1 [Iniparib]
Method in brief: as §1

Cladribine = compound: Nc1nc(Cl)nc2c1ncn2[C@H]1C[C@H](O)[C@@H](CO)O1 [Cladribine]
Method in brief: as §1

8-Azaguanin = compound: Nc1nc2n[nH]nc2c(=O)[nH]1 [8-Azaguanin]
Method in brief: as §1

Pentostatin = compound: OC[C@H]1O[C@@H](n2cnc3c2N=CNC[C@H]3O)C[C@@H]1O [Pentostatin]
Method in brief: as §1

[1] = compound: OCc1ccc(-c2ccc(-c3ccc(CO)s3)o2)s1
Method in brief: as §1

Question: Which results are given for primary ALL patient cells (S088)?
Answer: viability (Pralatrexate; 0.024 µM): 1.07; viability (Pralatrexate; 0.12 µM): 0.937; viability (Pralatrexate; 0.6 µM): 0.927; viability (Pralatrexate; 3 µM): 0.991; viability (Pralatrexate; 15 µM): 0.917; viability (Pacritinib; 0.024 µM): 0.868; viability (Pacritinib; 0.12 µM): 0.843; viability (Pacritinib; 0.6 µM): 0.707; viability (Pacritinib; 3 µM): 0.287; viability (Pacritinib; 15 µM): 0.0205; viability (Idarubicin; 0.024 µM): 0.341; viability (Idarubicin; 0.12 µM): 0.0818; viability (Idarubicin; 0.6 µM): 0.0274; viability (Idarubicin; 3 µM): 0.0177; viability (Idarubicin; 15 µM): 0.0163; viability (Carfilzomib; 0.00016 µM): 0.844; viability (Carfilzomib; 0.0008 µM): 0.348; viability (Carfilzomib; 0.004 µM): 0.0398; viability (Carfilzomib; 0.02 µM): 0.0238; viability (Carfilzomib; 0.1 µM): 0.0318; viability (ERK5-IN-1; 0.024 µM): 0.841; viability (ERK5-IN-1; 0.12 µM): 0.851; viability (ERK5-IN-1; 0.6 µM): 0.472; viability (ERK5-IN-1; 3 µM): 0.39; viability (ERK5-IN-1; 15 µM): 0.114; viability (BI6727; 0.024 µM): 0.796; viability (BI6727; 0.12 µM): 0.833; viability (BI6727; 0.6 µM): 0.634; viability (BI6727; 3 µM): 0.358; viability (BI6727; 15 µM): 0.078; viability (Birinapant; 0.0008 µM): 0.577; viability (Birinapant; 0.004 µM): 0.477; viability (Birinapant; 0.02 µM): 0.379; viability (Birinapant; 0.1 µM): 0.316; viability (Birinapant; 0.5 µM): 0.229; viability (Ribociclib; 0.024 µM): 0.713; viability (Ribociclib; 0.12 µM): 0.679; viability (Ribociclib; 0.6 µM): 0.621; viability (Ribociclib; 3 µM): 0.487; viability (Ribociclib; 15 µM): 0.357; viability (Rigosertib; 0.008 µM): 0.756; viability (Rigosertib; 0.04 µM): 0.78; viability (Rigosertib; 0.2 µM): 0.778; viability (Rigosertib; 1 µM): 0.806; viability (Rigosertib; 5 µM): 0.461; viability (BEZ235; 0.024 µM): 0.751; viability (BEZ235; 0.12 µM): 0.644; viability (BEZ235; 0.6 µM): 0.529; viability (BEZ235; 3 µM): 0.427; viability (BEZ235; 15 µM): 0.254; viability (Iniparib; 0.024 µM): 1.15; viability (Iniparib; 0.12 µM): 1.09; viability (Iniparib; 0.6 µM): 1.04; viability (Iniparib; 3 µM): 1; viability (Iniparib; 15 µM): 0.898; viability (Cladribine; 0.024 µM): 0.397; viability (Cladribine; 0.12 µM): 0.178; viability (Cladribine; 0.6 µM): 0.122; viability (Cladribine; 3 µM): 0.0996; viability (Cladribine; 15 µM): 0.0732; viability (8-Azaguanin; 0.032 µM): 0.783; viability (8-Azaguanin; 0.16 µM): 0.765; viability (8-Azaguanin; 0.8 µM): 0.346; viability (8-Azaguanin; 4 µM): 0.269; viability (8-Azaguanin; 20 µM): 0.174; viability (Pentostatin; 0.03 µM): 0.809; viability (Pentostatin; 0.15 µM): 0.725; viability (Pentostatin; 0.75 µM): 0.786; viability (Pentostatin; 3.75 µM): 0.669; viability (Pentostatin; 18.76 µM): 0.706; viability ([1]; 0.024 µM): 0.359; viability ([1]; 0.12 µM): 0.306; viability ([1]; 0.6 µM): 0.205; viability ([1]; 3 µM): 0.128; viability ([1]; 15 µM): 0.0223

Question: How did the viability (Pralatrexate; 0.024 µM) turn out when primary AML patient cells (S002) was run?
Answer: 1.02

Question: What about the viability (Pralatrexate; 0.12 µM) of the same test system?
Answer: 0.828

Question: And the viability (Pralatrexate; 0.6 µM)?
Answer: 0.79

Question: What about the viability (Pralatrexate; 3 µM) of the same test system?
Answer: 1.07

Question: And the viability (Pralatrexate; 15 µM)?
Answer: 0.928

Question: And the viability (Pacritinib; 0.024 µM)?
Answer: 0.955

Question: What about the viability (Pacritinib; 0.12 µM) of the same test system?
Answer: 0.884

Question: What about the viability (Pacritinib; 0.6 µM) of the same test system?
Answer: 0.814

Question: What about the viability (Pacritinib; 3 µM) of the same test system?
Answer: 0.421

Question: And the viability (Pacritinib; 15 µM)?
Answer: 0.274

Question: And the viability (Idarubicin; 0.024 µM)?
Answer: 0.332

Question: What about the viability (Idarubicin; 0.12 µM) of the same test system?
Answer: 0.303

Question: What about the viability (Idarubicin; 0.6 µM) of the same test system?
Answer: 0.267

Question: And the viability (Idarubicin; 3 µM)?
Answer: 0.217

Question: What about the viability (Idarubicin; 15 µM) of the same test system?
Answer: 0.165

Question: What about the viability (Carfilzomib; 0.00016 µM) of the same test system?
Answer: 0.941

Question: And the viability (Carfilzomib; 0.0008 µM)?
Answer: 0.633

Question: And the viability (Carfilzomib; 0.004 µM)?
Answer: 0.195

Question: What about the viability (Carfilzomib; 0.02 µM) of the same test system?
Answer: 0.0988

Question: What about the viability (Carfilzomib; 0.1 µM) of the same test system?
Answer: 0.0663

Question: What about the viability (ERK5-IN-1; 0.024 µM) of the same test system?
Answer: 1.19

Question: And the viability (ERK5-IN-1; 0.12 µM)?
Answer: 1.07

Question: And the viability (ERK5-IN-1; 0.6 µM)?
Answer: 0.733

Question: What about the viability (ERK5-IN-1; 3 µM) of the same test system?
Answer: 0.421

Question: What about the viability (ERK5-IN-1; 15 µM) of the same test system?
Answer: 0.276

Question: What about the viability (BI6727; 0.024 µM) of the same test system?
Answer: 0.839

Question: What about the viability (BI6727; 0.12 µM) of the same test system?
Answer: 0.702

Question: And the viability (BI6727; 0.6 µM)?
Answer: 0.553

Question: And the viability (BI6727; 3 µM)?
Answer: 0.343

Question: What about the viability (BI6727; 15 µM) of the same test system?
Answer: 0.263

Question: And the viability (Birinapant; 0.0008 µM)?
Answer: 0.8

Question: What about the viability (Birinapant; 0.004 µM) of the same test system?
Answer: 0.783

Question: And the viability (Birinapant; 0.02 µM)?
Answer: 0.66

Question: What about the viability (Birinapant; 0.1 µM) of the same test system?
Answer: 0.478

Question: And the viability (Birinapant; 0.5 µM)?
Answer: 0.322

Question: And the viability (Ribociclib; 0.024 µM)?
Answer: 0.981

Question: And the viability (Ribociclib; 0.12 µM)?
Answer: 1.1

Question: What about the viability (Ribociclib; 0.6 µM) of the same test system?
Answer: 1.03

Question: What about the viability (Ribociclib; 3 µM) of the same test system?
Answer: 1.06

Question: What about the viability (Ribociclib; 15 µM) of the same test system?
Answer: 0.736

Question: And the viability (Rigosertib; 0.008 µM)?
Answer: 0.949

Question: And the viability (Rigosertib; 0.04 µM)?
Answer: 0.952

Question: And the viability (Rigosertib; 0.2 µM)?
Answer: 0.943

Question: What about the viability (Rigosertib; 1 µM) of the same test system?
Answer: 0.803

Question: And the viability (Rigosertib; 5 µM)?
Answer: 1.02

Question: And the viability (BEZ235; 0.024 µM)?
Answer: 0.979

Question: What about the viability (BEZ235; 0.12 µM) of the same test system?
Answer: 0.963

Question: What about the viability (BEZ235; 0.6 µM) of the same test system?
Answer: 0.868

Question: And the viability (BEZ235; 3 µM)?
Answer: 0.853

Question: And the viability (BEZ235; 15 µM)?
Answer: 0.409

Question: What about the viability (Iniparib; 0.024 µM) of the same test system?
Answer: 1.07

Question: What about the viability (Iniparib; 0.12 µM) of the same test system?
Answer: 1.17

Question: What about the viability (Iniparib; 0.6 µM) of the same test system?
Answer: 0.968

Question: What about the viability (Iniparib; 3 µM) of the same test system?
Answer: 1.04

Question: And the viability (Iniparib; 15 µM)?
Answer: 0.831

Question: What about the viability (Cladribine; 0.024 µM) of the same test system?
Answer: 0.456

Question: And the viability (Cladribine; 0.12 µM)?
Answer: 0.412

Question: What about the viability (Cladribine; 0.6 µM) of the same test system?
Answer: 0.358

Question: What about the viability (Cladribine; 3 µM) of the same test system?
Answer: 0.365

Question: And the viability (Cladribine; 15 µM)?
Answer: 0.349

Question: What about the viability (8-Azaguanin; 0.032 µM) of the same test system?
Answer: 1.06

Question: What about the viability (8-Azaguanin; 0.16 µM) of the same test system?
Answer: 1.01

Question: And the viability (8-Azaguanin; 0.8 µM)?
Answer: 1.01

Question: And the viability (8-Azaguanin; 4 µM)?
Answer: 0.827

Question: And the viability (8-Azaguanin; 20 µM)?
Answer: 0.376

Question: And the viability (Pentostatin; 0.03 µM)?
Answer: 0.785

Question: And the viability (Pentostatin; 0.15 µM)?
Answer: 0.701

Question: What about the viability (Pentostatin; 0.75 µM) of the same test system?
Answer: 1.08

Question: What about the viability (Pentostatin; 3.75 µM) of the same test system?
Answer: 0.835

Question: What about the viability (Pentostatin; 18.76 µM) of the same test system?
Answer: 1.07

Question: And the viability ([1]; 0.024 µM)?
Answer: 0.897

Question: And the viability ([1]; 0.12 µM)?
Answer: 0.665

Question: What about the viability ([1]; 0.6 µM) of the same test system?
Answer: 0.411

Question: And the viability ([1]; 3 µM)?
Answer: 0.283

Question: And the viability ([1]; 15 µM)?
Answer: 0.183
